These results are taken from ChEMBL document CHEMBL1743341, “Cytochrome p450 enzymes mechanism based inhibitors: common sub-structures and reactivity” (Curr Drug Metab, 2005).

For series [1], the target named is CYP3A4 (Homo sapiens, UniProt P08684). Briefly: (§1) Mechanism based inhibition of human cytochrome P450 3A4 measured by testosterone hydroxylation. The series is classed as ADME. The settings on record: human, probe testosterone (hydroxylation).
Series [2] deals with T1, Cytochrome P450 3A4 (Homo sapiens, UniProt P08684). The series is described as §1. The series is classed as ADME.
T1 sequence (P08684 whole entry): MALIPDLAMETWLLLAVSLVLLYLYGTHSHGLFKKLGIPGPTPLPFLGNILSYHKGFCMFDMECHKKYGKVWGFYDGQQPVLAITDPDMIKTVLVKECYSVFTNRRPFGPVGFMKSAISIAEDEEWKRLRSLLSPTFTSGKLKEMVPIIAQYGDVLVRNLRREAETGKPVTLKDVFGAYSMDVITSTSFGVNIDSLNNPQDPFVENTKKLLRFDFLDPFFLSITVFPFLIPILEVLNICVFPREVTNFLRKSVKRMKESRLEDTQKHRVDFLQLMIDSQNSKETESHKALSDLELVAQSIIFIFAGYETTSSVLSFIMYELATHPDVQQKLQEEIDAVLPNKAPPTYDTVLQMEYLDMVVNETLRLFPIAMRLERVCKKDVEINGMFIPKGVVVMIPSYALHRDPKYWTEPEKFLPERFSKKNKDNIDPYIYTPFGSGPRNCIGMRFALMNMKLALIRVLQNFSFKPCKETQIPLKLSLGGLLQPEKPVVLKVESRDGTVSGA
Series [3] deals with T1, Cytochrome P450 3A4. Briefly: Mechanism based inhibition of human cytochrome P450 3A4 measured by transformation of triazolam into its alpha-hydroxy and 4-hydroxy metabolites. The series is classed as ADME.
Series [4] deals with T2, CYP3A5 (Homo sapiens, UniProt P20815). Briefly: (§2) Mechanism based inhibition of human cytochrome P450 3A5 measured by testosterone hydroxylation. The series is classed as ADME. The settings on record: human, probe testosterone (hydroxylation).
T2 sequence (P20815 whole entry): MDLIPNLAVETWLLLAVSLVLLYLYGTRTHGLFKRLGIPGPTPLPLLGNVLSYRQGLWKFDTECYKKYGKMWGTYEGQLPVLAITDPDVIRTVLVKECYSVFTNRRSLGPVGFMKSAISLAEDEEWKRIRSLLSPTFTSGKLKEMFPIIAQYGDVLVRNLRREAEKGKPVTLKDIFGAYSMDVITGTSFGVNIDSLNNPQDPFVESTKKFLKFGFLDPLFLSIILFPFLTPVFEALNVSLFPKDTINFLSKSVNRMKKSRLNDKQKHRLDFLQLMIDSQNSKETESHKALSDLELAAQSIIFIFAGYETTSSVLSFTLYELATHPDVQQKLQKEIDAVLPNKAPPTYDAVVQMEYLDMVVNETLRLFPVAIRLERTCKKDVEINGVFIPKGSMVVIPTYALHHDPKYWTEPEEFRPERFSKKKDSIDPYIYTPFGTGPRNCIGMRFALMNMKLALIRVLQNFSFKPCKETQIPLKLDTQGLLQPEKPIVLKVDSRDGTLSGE
Series [5] has as its target T3, Cytochrome P450 3A5 (Homo sapiens, UniProt P20815). The description is as §2. It counts as ADME.
For series [6], the target named is CYP2D6 (Homo sapiens, UniProt P10635). As to the kind of experiment: (§3) Mechanism based inhibition of human cytochrome P450 2D6 measured by dextromethorphan O-demethylation. It counts as ADME. The settings on record: human, probe dextromethorphan.
Sequence of CYP2D6 (P10635 whole entry): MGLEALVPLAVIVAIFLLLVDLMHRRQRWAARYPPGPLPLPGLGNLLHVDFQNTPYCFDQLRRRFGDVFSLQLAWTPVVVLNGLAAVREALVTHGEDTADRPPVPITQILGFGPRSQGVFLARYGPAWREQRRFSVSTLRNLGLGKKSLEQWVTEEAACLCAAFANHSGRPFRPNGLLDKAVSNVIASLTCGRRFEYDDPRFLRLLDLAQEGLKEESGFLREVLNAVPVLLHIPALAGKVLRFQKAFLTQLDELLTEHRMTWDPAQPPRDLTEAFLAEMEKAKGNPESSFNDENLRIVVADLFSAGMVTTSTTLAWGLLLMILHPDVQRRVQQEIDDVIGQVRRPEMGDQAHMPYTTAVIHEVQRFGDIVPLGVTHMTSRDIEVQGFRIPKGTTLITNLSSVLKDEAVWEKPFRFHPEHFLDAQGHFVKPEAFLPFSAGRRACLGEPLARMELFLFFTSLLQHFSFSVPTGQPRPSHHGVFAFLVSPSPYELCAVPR
The target in series [7] is T4, Cytochrome P450 2D6 (Homo sapiens, UniProt P10635). Described as §3. It counts as ADME.
T4 sequence (P10635 whole entry): as above
In series [8] the target is T4, Cytochrome P450 2D6. As to the kind of experiment: Mechanism based inhibition of human cytochrome P450 2D6, partition ratio. The series is classed as ADME.
The target of series [9] is T5, Cytochrome P450 2B1 (Rattus norvegicus, UniProt P00176).
T5 sequence (P00176 whole entry): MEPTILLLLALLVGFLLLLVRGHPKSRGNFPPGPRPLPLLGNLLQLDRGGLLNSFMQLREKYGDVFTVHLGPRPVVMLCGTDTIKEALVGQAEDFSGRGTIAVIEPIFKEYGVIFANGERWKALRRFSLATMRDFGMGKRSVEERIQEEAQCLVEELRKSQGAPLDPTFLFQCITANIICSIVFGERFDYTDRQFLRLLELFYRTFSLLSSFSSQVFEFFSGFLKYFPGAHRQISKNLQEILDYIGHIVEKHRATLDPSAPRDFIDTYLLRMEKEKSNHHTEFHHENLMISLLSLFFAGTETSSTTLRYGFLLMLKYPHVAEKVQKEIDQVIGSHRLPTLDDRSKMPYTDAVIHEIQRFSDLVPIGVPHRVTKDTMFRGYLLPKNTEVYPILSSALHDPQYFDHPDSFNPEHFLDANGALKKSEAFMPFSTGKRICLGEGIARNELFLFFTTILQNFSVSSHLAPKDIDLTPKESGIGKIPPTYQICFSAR
Briefly: Mechanism based inhibition of rat cytochrome P450 2B1 measured by 7-ethoxyresorufin O-deethylation (EROD). The series is classed as ADME.

Series [10] concerns the target T1, Cytochrome P450 3A4. Briefly: Mechanism based inhibition of human cytochrome P450 3A4 measured by midazolam hydroxylase activity. It counts as ADME.
Series [11] deals with CYP2C9 (Homo sapiens, UniProt P11712). As to the kind of experiment: (§4) Mechanism based inhibition of human cytochrome P450 2C9. It counts as ADME. The settings on record: human.
Sequence of CYP2C9 (P11712 whole entry): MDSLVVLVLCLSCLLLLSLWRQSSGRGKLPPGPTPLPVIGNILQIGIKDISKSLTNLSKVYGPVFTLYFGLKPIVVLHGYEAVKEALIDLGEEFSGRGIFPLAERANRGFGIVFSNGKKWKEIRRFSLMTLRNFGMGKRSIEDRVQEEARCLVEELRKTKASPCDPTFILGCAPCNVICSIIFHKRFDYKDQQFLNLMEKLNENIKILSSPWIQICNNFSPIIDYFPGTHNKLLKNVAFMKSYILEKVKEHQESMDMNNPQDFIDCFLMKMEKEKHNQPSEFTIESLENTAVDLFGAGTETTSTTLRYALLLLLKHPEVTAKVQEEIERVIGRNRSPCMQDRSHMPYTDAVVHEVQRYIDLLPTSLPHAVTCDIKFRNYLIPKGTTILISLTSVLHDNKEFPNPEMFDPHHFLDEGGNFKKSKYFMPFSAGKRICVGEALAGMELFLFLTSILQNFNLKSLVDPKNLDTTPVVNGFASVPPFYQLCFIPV
The target of series [12] is T6, Cytochrome P450 2C9 (Homo sapiens, UniProt P11712). The description is as §4. It counts as ADME.
T6 sequence (P11712 whole entry): as above
For series [13], the target named is T6, Cytochrome P450 2C9. As to the kind of experiment: Mechanism based inhibition of human cytochrome P450 2C9, partition ratio. The series is classed as ADME.
Series [14] concerns the target T7, CYP2B6 (Homo sapiens, UniProt P20813).
T7 sequence (P20813 whole entry): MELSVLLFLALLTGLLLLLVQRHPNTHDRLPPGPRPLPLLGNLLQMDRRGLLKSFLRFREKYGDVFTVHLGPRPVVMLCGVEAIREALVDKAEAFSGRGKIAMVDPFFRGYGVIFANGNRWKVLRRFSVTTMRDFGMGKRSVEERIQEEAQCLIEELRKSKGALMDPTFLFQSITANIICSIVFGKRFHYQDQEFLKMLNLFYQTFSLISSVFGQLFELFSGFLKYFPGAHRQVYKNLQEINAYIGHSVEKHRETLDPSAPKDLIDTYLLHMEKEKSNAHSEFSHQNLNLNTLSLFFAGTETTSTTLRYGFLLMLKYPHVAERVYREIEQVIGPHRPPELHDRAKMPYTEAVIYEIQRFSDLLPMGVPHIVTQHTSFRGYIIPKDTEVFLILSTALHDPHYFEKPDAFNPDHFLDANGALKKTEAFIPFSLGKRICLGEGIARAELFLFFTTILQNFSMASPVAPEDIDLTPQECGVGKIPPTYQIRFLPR
As to the kind of experiment: (§5) Mechanism based inhibition of human cytochrome P450 2B6. The settings on record: human. The series is classed as ADME.

For series [15], the target named is T8, Cytochrome P450 2B6 (Homo sapiens, UniProt P20813).
T8 sequence (P20813 whole entry): T7 sequence (P20813 whole entry)
The description is as §5. The series is classed as ADME.

Series [16] concerns the target CYP2E1 (Homo sapiens, UniProt P05181). Briefly: (§6) Mechanism based inhibition of human cytochrome P450 2E1 measured in vivo. It counts as ADME, organism-based. The settings on record: human, in vivo.
The target of series [17] is Cytochrome P450 2E1 (Homo sapiens, UniProt P05181). Described as §6. The series is classed as ADME, organism-based.
Sequence of Cytochrome P450 2E1 (P05181 whole entry): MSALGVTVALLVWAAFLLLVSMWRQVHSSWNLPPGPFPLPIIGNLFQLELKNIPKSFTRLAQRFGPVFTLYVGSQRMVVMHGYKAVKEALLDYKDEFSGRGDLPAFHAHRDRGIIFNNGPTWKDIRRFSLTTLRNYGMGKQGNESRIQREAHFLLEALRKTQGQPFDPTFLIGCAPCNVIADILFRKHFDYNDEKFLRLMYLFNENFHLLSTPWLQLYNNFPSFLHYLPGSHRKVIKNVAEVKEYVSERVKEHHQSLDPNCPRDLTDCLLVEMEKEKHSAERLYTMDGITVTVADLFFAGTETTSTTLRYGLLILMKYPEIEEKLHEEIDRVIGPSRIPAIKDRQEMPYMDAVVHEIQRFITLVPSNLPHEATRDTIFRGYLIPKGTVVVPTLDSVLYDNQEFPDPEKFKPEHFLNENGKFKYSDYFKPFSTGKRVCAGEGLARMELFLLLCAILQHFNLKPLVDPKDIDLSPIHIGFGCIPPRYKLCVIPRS
For series [18], the target named is T1, Cytochrome P450 3A4. As to the kind of experiment: Mechanism based inhibition of human cytochrome P450 3A4 measured by testosterone 6-beta hydroxylation. The series is classed as ADME.
In series [19] the target is T1, Cytochrome P450 3A4. Briefly: Mechanism based inhibition of human cytochrome P450 3A4 measured by testosterone 6-beta hydroxylation and erythromycin N-demethylation. It counts as ADME.
The target in series [20] is T2, CYP3A5. As to the kind of experiment: (§7) Mechanism based inhibition of human cytochrome P450 3A5. The series is classed as ADME. The settings on record: human.
Series [21] addresses T3, Cytochrome P450 3A5. The series is described as §7. It counts as ADME.
The target in series [22] is T9, CYP2B4 (Oryctolagus cuniculus, UniProt P00178).
T9 sequence (P00178 whole entry): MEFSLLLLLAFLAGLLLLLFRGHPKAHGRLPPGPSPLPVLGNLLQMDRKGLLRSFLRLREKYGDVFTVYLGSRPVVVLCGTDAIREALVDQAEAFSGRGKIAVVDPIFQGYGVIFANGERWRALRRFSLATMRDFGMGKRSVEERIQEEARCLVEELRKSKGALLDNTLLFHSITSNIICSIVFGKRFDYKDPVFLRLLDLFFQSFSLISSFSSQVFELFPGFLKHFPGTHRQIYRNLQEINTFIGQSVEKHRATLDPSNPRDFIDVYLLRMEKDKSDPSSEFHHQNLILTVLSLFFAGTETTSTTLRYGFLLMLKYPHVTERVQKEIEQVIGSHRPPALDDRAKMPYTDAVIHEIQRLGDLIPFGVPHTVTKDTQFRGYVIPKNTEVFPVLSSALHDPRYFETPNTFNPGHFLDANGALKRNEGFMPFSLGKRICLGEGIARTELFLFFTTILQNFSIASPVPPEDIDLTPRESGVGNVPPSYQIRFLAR
As to the kind of experiment: (§8) Mechanism based inhibition of rabbit cytochrome P450 2B4. The series is classed as ADME. The settings on record: rabbit.

The target of series [23] is T10, Cytochrome P450 2B4 (Oryctolagus cuniculus, UniProt P00178).
T10 sequence (P00178 whole entry): T9 sequence (P00178 whole entry)
Described as §8. It counts as ADME.

Series [24] has as its target T11, CYP2B1 (Rattus norvegicus, UniProt P00176).
T11 sequence (P00176 whole entry): T5 sequence (P00176 whole entry)
Briefly: (§9) Mechanism based inhibition of rat cytochrome P450 2B1. It counts as ADME. The settings on record: rat.

For series [25], the target named is T5, Cytochrome P450 2B1. The series is described as §9. The series is classed as ADME.
In series [26] the target is T8, Cytochrome P450 2B6. As to the kind of experiment: Mechanism based inhibition of human cytochrome P450 2B6, partition ratio. It counts as ADME.
Series [27] deals with T3, Cytochrome P450 3A5. As to the kind of experiment: Mechanism based inhibition of human cytochrome P450 3A5, partition ratio. The series is classed as ADME.
Series [28] addresses T8, Cytochrome P450 2B6. As to the kind of experiment: Mechanism based inhibition of human cytochrome P450 2B6, partition ratio (value refers to P450 expressed in baculovirus infected insect cells). It counts as ADME.
In series [29] the target is T12, CYP2A6 (Homo sapiens, UniProt P11509).
T12 sequence (P11509 whole entry): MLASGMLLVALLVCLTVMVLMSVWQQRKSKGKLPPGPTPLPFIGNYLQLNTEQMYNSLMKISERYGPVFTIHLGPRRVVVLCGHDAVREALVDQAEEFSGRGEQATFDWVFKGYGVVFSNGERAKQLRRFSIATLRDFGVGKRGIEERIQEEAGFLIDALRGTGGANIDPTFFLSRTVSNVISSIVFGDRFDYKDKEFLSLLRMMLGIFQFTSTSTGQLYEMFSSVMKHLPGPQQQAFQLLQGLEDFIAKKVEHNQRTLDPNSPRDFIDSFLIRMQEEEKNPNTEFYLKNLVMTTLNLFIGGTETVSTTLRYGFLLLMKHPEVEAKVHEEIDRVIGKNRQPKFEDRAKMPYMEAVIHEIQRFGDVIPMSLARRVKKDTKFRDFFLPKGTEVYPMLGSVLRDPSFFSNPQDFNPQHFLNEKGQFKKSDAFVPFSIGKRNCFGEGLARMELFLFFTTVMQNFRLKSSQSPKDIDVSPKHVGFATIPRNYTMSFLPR
As to the kind of experiment: (§10) Mechanism based inhibition of human cytochrome P450 2A6 measured by coumarin 7-hydroxylation. The series is classed as ADME. The settings on record: human, probe coumarin (7-hydroxylation).

Series [30] deals with T13, Cytochrome P450 2A6 (Homo sapiens, UniProt P11509).
T13 sequence (P11509 whole entry): T12 sequence (P11509 whole entry)
Described as §10. The series is classed as ADME.

T3 sequence (P20815 whole entry): as the sequence (P20815 whole entry) above
Sequence of CYP3A4 (P08684 whole entry): as the sequence (P08684 whole entry) above
Sequence of CYP2E1 (P05181 whole entry): as the sequence (P05181 whole entry) above

What is called kinact is the maximal first-order rate at which the target is inactivated. Take `CC(C)CN(C[C@@H](O)[C@H](Cc1ccccc1)NC(=O)O[C@H]1CCOC1)S(=O)(=O)c1ccc(N)cc1`: the values for the kinact in series [1] and in [4] were 0.0122 s⁻¹ and 0.00583 s⁻¹, respectively. Also, the Ki in series [2] was 0.26 µM; in series [5], 0.2 µM. Further, the mechanism based inhibition entry in series [3] is “Cytochrome P450 mechanistic inhibitor: PMID 10952482”.

In the case of `CCc1nc(C)c(CN2CCN(c3cc(C(F)(F)F)ccn3)CC2)[nH]1`, the kinact in series [6] was 0.0015 s⁻¹. In series [7], the Ki was 5.5 µM. The Partition ratio in series [8] is 99.

Take `C#CCCCc1ccccc1`: the mechanism based inhibition entry in series [9] is “Cytochrome P450 mechanistic inhibitor: PMID 9760279”.

With `CNCCN1C(=O)[C@H](OC(C)=O)[C@H](c2ccc(OC)cc2)Sc2ccccc21`, the mechanism based inhibition entry in series [10] is “Cytochrome P450 mechanistic inhibitor: PMID 10454485”.

With `CC(C(=O)O)c1ccc(C(=O)c2cccs2)cc1` (racemic) [SUPROFEN], the kinact in series [11] was 0.00152 s⁻¹. In addition, in series [12], the Ki is 3.7 µM. The Partition ratio in [13] was found to be 101.

`CC(C)=CCC/C(C)=C/COc1c2ccoc2cc2oc(=O)ccc12` [BERGAMOTTIN]: the kinact in series [14] was 0.00145 s⁻¹; in series [16], 0.00133 s⁻¹; in series [20], 0.00075 s⁻¹; in [22], 0.00113 s⁻¹; in series [24], 0.000817 s⁻¹. In addition, the Ki amounted to 5.2 µM in series [15]; 40 µM in series [17]; 7.7 µM in series [19]; 20 µM in series [21]; 2.8 µM in series [23]; 2.4 µM in series [25]. Also, the mechanism based inhibition entry in series [18] is reported as “Cytochrome P450 mechanistic inhibitor: PMID 10859150”. Further, the Partition ratio in [26] came out at 2; in series [27], 20.

`COc1c2ccoc2cc2oc(=O)ccc12` [BERGAPTEN]: the Partition ratio in series [28] stood at 57.4. Besides, the inactivation rate constant (kinact) in [29] is 0.006 s⁻¹. The compound further had a Ki in series [30] of 12 µM.
